Our source for the EC50, AC50 and IC50 values is ChEMBL document CHEMBL1201862, “PubChem BioAssay data set” (2004).

Activity calls are given as the source filed them. Bounds are passed on as bounds.

For test [1], the target named is Luciferin 4-monooxygenase (Photinus pyralis, UniProt P08659). Description: firefly luciferase enzyme inhibitors, dose response, biochemical, luminescence (AID 1891).
Test [2] is described as follows: Luminescence Cell-Based Dose Confirmation HTS to Identify Inhibitors of Platelet Dense Granule Release. [Related pubchem assays: 1663 (Primary HTS), 1678 (Summary of Project)]. It counts as functional.
Test [3] addresses T1, Caspase-6 (Homo sapiens, UniProt P55212).
T1 sequence (P55212 whole entry): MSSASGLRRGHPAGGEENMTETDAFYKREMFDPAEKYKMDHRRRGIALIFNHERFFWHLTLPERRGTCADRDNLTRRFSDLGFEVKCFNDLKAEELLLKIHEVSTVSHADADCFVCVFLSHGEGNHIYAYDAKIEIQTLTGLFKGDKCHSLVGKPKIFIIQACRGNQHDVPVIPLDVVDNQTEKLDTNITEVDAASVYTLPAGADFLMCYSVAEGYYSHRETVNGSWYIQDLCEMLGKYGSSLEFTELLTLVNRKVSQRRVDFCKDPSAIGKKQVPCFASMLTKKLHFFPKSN
Nature of the test: human caspase-6 inhibitors, dose response, biochemical, VEID-R110 fluorescence, cherry-pick (AID 720632).

Test [4] addresses T2, Carboxy-terminal domain RNA polymerase II polypeptide A small phosphatase 1 (Homo sapiens, UniProt Q9GZU7).
T2 sequence (Q9GZU7 whole entry): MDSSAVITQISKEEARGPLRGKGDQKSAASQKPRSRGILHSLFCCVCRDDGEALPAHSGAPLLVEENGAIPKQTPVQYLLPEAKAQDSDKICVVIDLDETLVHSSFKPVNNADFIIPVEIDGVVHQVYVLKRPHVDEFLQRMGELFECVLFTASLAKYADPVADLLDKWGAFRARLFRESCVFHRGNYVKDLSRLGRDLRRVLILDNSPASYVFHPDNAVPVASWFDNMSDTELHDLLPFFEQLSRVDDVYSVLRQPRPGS
Nature of the test: inhibitors of CTDSP1, concentration-response testing, biochemical assay, absorbance-based, actives from ultra-high-throughput screening (AID 540297). The class given is functional.

Test [5] deals with INS1. Nature of the test: beta cell apoptosis inhibitors, cytokine rescue, dose response, luminescence, retest (AID 449756).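 Further: cell death triggered by IL-1 beta plus TNF-alpha plus IFN-gamma mixture; protective hits raise ATP signal compared with cytokine alone wells.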 It counts as functional, cell-based. The following applies: Rattus norvegicus.
A short description of test [6]: Shn3 3'UTR reporter inhibitors, dose response, cell-based, Clone20 osteoblasts, firefly luciferase, cherry-picked (AID 624132).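 Further: firefly luciferase luminescence from reporter carrying the Shn3 3'UTR in osteoblasts.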 It counts as functional.
The nature of test [7]: HepG2 cell cytotoxicity, dose response, cytotoxicity control for Shn3 inhibitor project, CellTiter-Glo, cherry-picked (AID 624134). It counts as functional, cell-based. For orientation: ATP-based viability assays read luminescence as a measure of living cells.
The nature of test [8]: control 3'UTR Renilla luciferase suppression, dose response, counter-screen for Shn3 inhibitor project, cell-based, Clone20-Shn3RL, cherry-picked (AID 624133). The class given is functional.
Test [9] concerns the target T3, Galanin receptor type 3 (Homo sapiens, UniProt O60755).
T3 sequence (O60755 whole entry): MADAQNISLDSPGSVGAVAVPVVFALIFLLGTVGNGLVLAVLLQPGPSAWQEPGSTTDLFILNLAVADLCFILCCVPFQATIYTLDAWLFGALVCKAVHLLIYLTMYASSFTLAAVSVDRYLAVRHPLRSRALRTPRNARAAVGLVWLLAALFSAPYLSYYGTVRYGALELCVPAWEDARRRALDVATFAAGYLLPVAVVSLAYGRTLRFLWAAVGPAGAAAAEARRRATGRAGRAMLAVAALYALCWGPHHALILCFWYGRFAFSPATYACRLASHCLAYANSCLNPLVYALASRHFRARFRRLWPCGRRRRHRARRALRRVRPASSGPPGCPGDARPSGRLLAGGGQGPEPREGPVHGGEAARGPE
Description: Fluorescence-based cell-based primary high throughput dose response assay to identify antagonists of the Galanin Receptor 3 (GalR3). The class given is functional.

Test [10] in a line: cells. The class given is functional, cell-based. The following applies: HEK-CNG.
Test [11] has as its target T4, Tyrosyl-DNA phosphodiesterase 2 (Homo sapiens, UniProt O95551).
T4 sequence (O95551 whole entry): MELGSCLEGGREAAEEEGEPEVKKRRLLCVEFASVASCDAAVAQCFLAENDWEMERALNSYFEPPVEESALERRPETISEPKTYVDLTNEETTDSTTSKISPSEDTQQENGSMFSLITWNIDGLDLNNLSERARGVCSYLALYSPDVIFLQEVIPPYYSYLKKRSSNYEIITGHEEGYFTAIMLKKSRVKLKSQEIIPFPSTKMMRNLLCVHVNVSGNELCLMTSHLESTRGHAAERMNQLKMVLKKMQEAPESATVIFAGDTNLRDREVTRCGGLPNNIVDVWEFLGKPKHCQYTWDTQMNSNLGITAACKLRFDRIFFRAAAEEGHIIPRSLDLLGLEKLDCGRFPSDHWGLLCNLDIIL
Description: human TDP2 enzyme inhibitors, dose response, biochemical, epi absorbance, IC50 (AID 743297).

The nature of test [12]: inhibitors of Vif binding to APOBEC3G peptide, primary screen, biochemical, TR-FRET, GST-Vif 1-94, biotin-A3G peptide, dose response retest (AID 1117319).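 Further: TR-FRET signal of purified GST-Vif binding a biotinylated A3G peptide; inhibitors lower the FRET signal by blocking Vif and A3G binding.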 The class given is functional. In general terms: TR-FRET usually uses a lanthanide donor and a delayed reading to cut background.
Test [13] has as its target Disintegrin and metalloproteinase domain-containing protein 17 (Homo sapiens, UniProt P78536). Nature of the test: exosite inhibitors of ADAM17, dose response, biochemical (AID 743260).
A short description of test [14]: ADAM10 protease inhibitors, dose response, selectivity assay for ADAM17 exosite inhibitor project, biochemical, FRET peptide substrate, recombinant human ADAM10 (AID 743259).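 Further: ADAM10 enzyme cleaving a FRET peptide substrate.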
Test [15] addresses Paired box protein Pax-8 (Homo sapiens, UniProt Q06710). Description: inhibitors of PAX8-driven TPO luciferase reporter, dose response, RMG-I cells, cherry-pick (AID 687027).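 Further: luciferase reporter driven by Pax8 target thyroperoxidase promoter measured by SteadyGlo luminescence.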 It counts as functional, cell-based. For orientation: A reporter such as luciferase makes a cellular process visible.
Test [16] can be described thus: A2780 ovarian cancer cell cytotoxicity, dose response, cytotoxicity control, plate reader, dry powder samples (AID 743046). The class given is functional, cell-based.

Sequence of Disintegrin and metalloproteinase domain-containing protein 17 (P78536 whole entry, the tested form may be a part): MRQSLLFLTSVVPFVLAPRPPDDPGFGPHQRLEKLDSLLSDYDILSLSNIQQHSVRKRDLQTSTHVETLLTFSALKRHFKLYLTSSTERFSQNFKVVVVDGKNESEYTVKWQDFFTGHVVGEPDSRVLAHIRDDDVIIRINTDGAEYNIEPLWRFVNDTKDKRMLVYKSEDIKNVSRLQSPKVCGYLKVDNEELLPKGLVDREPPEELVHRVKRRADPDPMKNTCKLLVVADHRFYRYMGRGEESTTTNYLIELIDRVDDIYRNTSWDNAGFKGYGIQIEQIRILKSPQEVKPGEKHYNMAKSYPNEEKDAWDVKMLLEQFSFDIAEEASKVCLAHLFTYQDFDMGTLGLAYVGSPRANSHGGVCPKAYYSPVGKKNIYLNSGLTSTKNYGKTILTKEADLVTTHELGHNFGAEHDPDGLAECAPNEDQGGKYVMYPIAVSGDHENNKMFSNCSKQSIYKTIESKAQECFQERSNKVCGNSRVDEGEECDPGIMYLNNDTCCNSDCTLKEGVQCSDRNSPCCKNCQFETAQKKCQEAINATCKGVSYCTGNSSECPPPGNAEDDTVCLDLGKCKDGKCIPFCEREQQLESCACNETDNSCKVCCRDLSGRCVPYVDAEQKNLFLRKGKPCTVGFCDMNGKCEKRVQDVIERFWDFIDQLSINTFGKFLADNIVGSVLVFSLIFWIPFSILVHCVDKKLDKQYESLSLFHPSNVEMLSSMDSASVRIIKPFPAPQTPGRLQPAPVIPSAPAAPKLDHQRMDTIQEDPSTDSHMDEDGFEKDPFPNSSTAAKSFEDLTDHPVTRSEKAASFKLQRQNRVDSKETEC
Sequence of Paired box protein Pax-8 (Q06710 whole entry): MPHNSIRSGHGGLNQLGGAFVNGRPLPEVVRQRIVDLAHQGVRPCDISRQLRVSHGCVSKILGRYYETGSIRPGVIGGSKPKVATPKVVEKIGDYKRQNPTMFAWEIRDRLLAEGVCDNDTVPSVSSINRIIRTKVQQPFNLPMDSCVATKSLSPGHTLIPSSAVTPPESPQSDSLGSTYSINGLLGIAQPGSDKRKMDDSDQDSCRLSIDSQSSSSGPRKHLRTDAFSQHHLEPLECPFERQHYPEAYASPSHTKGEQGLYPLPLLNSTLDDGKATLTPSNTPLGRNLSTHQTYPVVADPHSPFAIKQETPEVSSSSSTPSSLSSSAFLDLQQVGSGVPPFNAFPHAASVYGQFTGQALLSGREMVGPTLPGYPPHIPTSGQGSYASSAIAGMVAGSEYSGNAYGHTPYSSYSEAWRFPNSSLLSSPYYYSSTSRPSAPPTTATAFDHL
Sequence of Luciferin 4-monooxygenase (P08659 whole entry): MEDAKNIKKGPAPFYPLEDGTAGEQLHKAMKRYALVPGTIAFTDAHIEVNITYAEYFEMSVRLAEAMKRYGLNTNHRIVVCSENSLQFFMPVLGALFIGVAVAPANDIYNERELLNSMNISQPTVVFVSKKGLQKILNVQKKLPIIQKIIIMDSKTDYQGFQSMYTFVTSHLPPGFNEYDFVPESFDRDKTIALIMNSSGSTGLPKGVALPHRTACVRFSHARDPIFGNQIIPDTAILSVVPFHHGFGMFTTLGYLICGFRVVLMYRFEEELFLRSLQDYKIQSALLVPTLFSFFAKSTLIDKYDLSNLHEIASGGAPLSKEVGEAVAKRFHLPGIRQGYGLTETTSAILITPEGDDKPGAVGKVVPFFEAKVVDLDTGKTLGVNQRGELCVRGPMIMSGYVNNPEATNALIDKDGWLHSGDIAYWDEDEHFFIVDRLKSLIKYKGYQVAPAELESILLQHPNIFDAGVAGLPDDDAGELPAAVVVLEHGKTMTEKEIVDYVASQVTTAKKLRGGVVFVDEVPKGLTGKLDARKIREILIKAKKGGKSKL

What is called EC50 is the midpoint of the concentration-response curve. One may read the AC50 as the concentration at which the activity in the assay is half-maximal. For the compound `O=C(O)C1C2C=CC(C2)C1C(=O)NCc1cccs1` (stereo unspecified), the EC50 in test [1] and in test [2] was > 112 µM (not active) throughout. Further, the AC50 in test [3] is 14.8 µM (active).

As a reminder, the IC50 is the point on the concentration scale where inhibition reaches its midpoint. With `COc1ccc(S(=O)(=O)NNC(=O)Cc2csc(C)n2)cc1[N+](=O)[O-]`, the IC50 in test [4] was 16.3 µM (active). For the same compound, in test [3], the AC50 is 8.98 µM (active).

In the case of `NC(=O)c1ccc(N2CCN(S(=O)(=O)c3cccs3)CC2)c([N+](=O)[O-])c1`, the AC50 was 3.67 µM (active) in test [5], 0.305 µM (active) in test [6], 2.54 µM (active) in test [7] and 6.21 µM (active) in test [8]. Further, the half-inhibitory concentration (IC50) in [9] is 1.09 µM (active). Besides, the EC50 in test [10] is > 29.9 µM (inactive).

Regarding `Clc1ccccc1N=Nc1ccccn1`, the results for the IC50 in test [11] and in [12] were > 128 µM (inactive) and > 100 µM (active), respectively.

For the compound `COc1cccc(C(=O)c2c(-c3ccccc3)ncc3cc(OC)c(OC)cc23)c1`, the IC50 in test [13] and in [14] was > 69.4 µM (inactive) throughout.

In the case of `Cc1ccc(S(=O)(=O)N2CCC(=O)N([C@H](COC(=O)Nc3ccccc3)Cc3ccccc3)CC2)cc1`, the IC50 in [13] was > 69.4 µM (inactive); in test [14] it was > 7.72 µM (active).

As for `C[C@@H]1CN([C@H](C)CO)C(=O)c2c(c3ccccc3n2C)-c2ccccc2CO[C@H]1CN(C)S(=O)(=O)c1cccc(F)c1`, the AC50 was 19.2 µM (active) in [15] and 4.51 µM (active) in test [16].

On to `Cc1cccc(NC(=O)CSc2nnc(SCc3ccc(Cl)cc3)s2)c1`, for which the IC50 in test [13] and in [14] was > 69.4 µM (inactive) each time.
